Assay results as given in the NIST ThermoML archive (doi:10.1016/j.jct.2009.01.014).
“And” between values parts separate entries of the source, which are not always exact repeats. Identical values can stand only once. Numbers after ± are expanded uncertainties.

Assay: molar heat capacity at constant pressure
Conditions: 101.33 kPa, Crystal 1, Vacuum adiabatic calorimetry

[Al+3].[Al+3].[Co+2].[O-2].[O-2].[O-2].[O-2] [aluminium cobalt oxide]
Conditions	molar heat capacity at constant pressure
146.83 K	57.16 ± 0.29 J/K/mol
147.05 K	57.28 ± 0.29 J/K/mol
149.96 K	58.88 ± 0.3 J/K/mol
150 K	58.9 ± 0.3 J/K/mol
150.67 K	59.3 ± 0.3 J/K/mol
152.88 K	60.51 ± 0.3 J/K/mol
154.53 K	61.45 ± 0.31 J/K/mol
155.79 K	62.12 ± 0.31 J/K/mol
158.38 K	63.57 ± 0.32 J/K/mol
158.7 K	63.68 ± 0.32 J/K/mol
160 K	64.37 ± 0.32 J/K/mol
161.62 K	65.3 ± 0.32 J/K/mol
162.25 K	65.67 ± 0.32 J/K/mol
164.55 K	66.89 ± 0.33 J/K/mol
166.11 K	67.74 ± 0.33 J/K/mol
167.47 K	68.46 ± 0.33 J/K/mol
169.98 K	69.8 ± 0.34 J/K/mol
170 K	69.81 ± 0.34 J/K/mol
170.39 K	70.02 ± 0.34 J/K/mol
173.28 K	71.53 ± 0.34 J/K/mol
173.86 K	71.81 ± 0.35 J/K/mol
176.14 K	73.02 ± 0.35 J/K/mol
177.74 K	73.82 ± 0.35 J/K/mol
178.97 K	74.47 ± 0.36 J/K/mol
180 K	74.99 ± 0.36 J/K/mol
181.6 K	75.79 ± 0.36 J/K/mol
181.77 K	75.91 ± 0.36 J/K/mol
184.55 K	77.27 ± 0.37 J/K/mol
185.41 K	77.67 ± 0.37 J/K/mol
187.3 K	78.65 ± 0.37 J/K/mol
189.19 K	79.56 ± 0.37 J/K/mol
190 K	79.97 ± 0.38 J/K/mol
190.03 K	79.99 ± 0.38 J/K/mol
192.74 K	81.28 ± 0.38 J/K/mol
192.91 K	81.34 ± 0.38 J/K/mol
195.43 K	82.61 ± 0.39 J/K/mol
196.6 K	83.11 ± 0.39 J/K/mol
198.09 K	83.83 ± 0.39 J/K/mol
200 K	84.73 ± 0.39 J/K/mol
200.24 K	84.85 ± 0.39 J/K/mol
200.74 K	85.08 ± 0.4 J/K/mol
203.36 K	86.29 ± 0.4 J/K/mol
203.85 K	86.5 ± 0.4 J/K/mol
205.97 K	87.49 ± 0.4 J/K/mol
207.42 K	88.12 ± 0.41 J/K/mol
208.56 K	88.63 ± 0.41 J/K/mol
210 K	89.28 ± 0.41 J/K/mol
210.96 K	89.71 ± 0.41 J/K/mol
211.13 K	89.82 ± 0.41 J/K/mol
213.68 K	90.9 ± 0.42 J/K/mol
214.47 K	91.27 ± 0.42 J/K/mol
216.22 K	92.07 ± 0.42 J/K/mol
217.95 K	92.81 ± 0.43 J/K/mol
218.74 K	93.14 ± 0.43 J/K/mol
220 K	93.68 ± 0.43 J/K/mol
221.25 K	94.2 ± 0.43 J/K/mol
221.4 K	94.18 ± 0.43 J/K/mol
223.74 K	95.23 ± 0.43 J/K/mol
224.82 K	95.65 ± 0.44 J/K/mol
226.22 K	96.27 ± 0.44 J/K/mol
228.21 K	97.04 ± 0.44 J/K/mol
228.69 K	97.25 ± 0.44 J/K/mol
230 K	97.8 ± 0.44 J/K/mol
231.14 K	98.26 ± 0.45 J/K/mol
231.58 K	98.37 ± 0.45 J/K/mol
233.58 K	99.23 ± 0.45 J/K/mol
234.92 K	99.71 ± 0.45 J/K/mol
236.01 K	100.16 ± 0.45 J/K/mol
238.24 K	101.02 ± 0.46 J/K/mol
238.42 K	101.09 ± 0.46 J/K/mol
240 K	101.73 ± 0.46 J/K/mol
240.83 K	102.05 ± 0.46 J/K/mol
241.54 K	102.25 ± 0.46 J/K/mol
243.22 K	102.92 ± 0.46 J/K/mol
244.81 K	103.49 ± 0.47 J/K/mol
245.59 K	103.81 ± 0.47 J/K/mol
247.96 K	104.73 ± 0.47 J/K/mol
248.06 K	104.72 ± 0.47 J/K/mol
250 K	105.45 ± 0.47 J/K/mol
250.32 K	105.57 ± 0.47 J/K/mol
251.29 K	105.92 ± 0.48 J/K/mol
252.67 K	106.55 ± 0.48 J/K/mol
254.51 K	106.81 ± 0.48 J/K/mol
255.02 K	106.86 ± 0.48 J/K/mol
257.35 K	107.86 ± 0.48 J/K/mol
257.71 K	108 ± 0.48 J/K/mol
259.68 K	108.69 ± 0.49 J/K/mol
260 K	108.81 ± 0.49 J/K/mol
260.89 K	109.14 ± 0.49 J/K/mol
261.99 K	109.47 ± 0.49 J/K/mol
264.06 K	110.17 ± 0.49 J/K/mol
264.3 K	110.3 ± 0.49 J/K/mol
266.6 K	111.11 ± 0.5 J/K/mol
267.21 K	111.27 ± 0.5 J/K/mol
268.89 K	111.88 ± 0.5 J/K/mol
270 K	112.21 ± 0.5 J/K/mol
270.34 K	112.32 ± 0.5 J/K/mol
271.18 K	112.63 ± 0.5 J/K/mol
273.45 K	113.32 ± 0.5 J/K/mol and 113.36 ± 0.5 J/K/mol
275.72 K	114.12 ± 0.51 J/K/mol
276.55 K	114.32 ± 0.51 J/K/mol
277.98 K	114.86 ± 0.51 J/K/mol
279.64 K	115.3 ± 0.51 J/K/mol
280 K	115.49 ± 0.51 J/K/mol
280.23 K	115.61 ± 0.51 J/K/mol
282.47 K	116.23 ± 0.52 J/K/mol
282.71 K	116.25 ± 0.52 J/K/mol
284.71 K	117.01 ± 0.52 J/K/mol
285.76 K	117.27 ± 0.52 J/K/mol
286.94 K	117.64 ± 0.52 J/K/mol
288.8 K	118.11 ± 0.52 J/K/mol
289.16 K	118.27 ± 0.52 J/K/mol
290 K	118.56 ± 0.53 J/K/mol
291.38 K	118.88 ± 0.53 J/K/mol
291.83 K	118.87 ± 0.53 J/K/mol
293.59 K	119.39 ± 0.53 J/K/mol
294.84 K	119.71 ± 0.53 J/K/mol
295.8 K	120.14 ± 0.53 J/K/mol
297.85 K	120.6 ± 0.53 J/K/mol
298 K	120.75 ± 0.53 J/K/mol
298.15 K	120.8 ± 0.53 J/K/mol
300 K	121.29 ± 0.54 J/K/mol
300.19 K	121.32 ± 0.54 J/K/mol
300.84 K	121.4 ± 0.54 J/K/mol
302.38 K	121.76 ± 0.54 J/K/mol
304.56 K	122.44 ± 0.54 J/K/mol
306.74 K	123.1 ± 0.54 J/K/mol
308.91 K	123.82 ± 0.55 J/K/mol
310 K	124.03 ± 0.55 J/K/mol
311.08 K	124.21 ± 0.55 J/K/mol
314.58 K	125.39 ± 0.55 J/K/mol
316.31 K	125.57 ± 0.55 J/K/mol
318.27 K	126.1 ± 0.55 J/K/mol
320 K	126.56 ± 0.56 J/K/mol
320.27 K	126.63 ± 0.56 J/K/mol
322.26 K	127.06 ± 0.56 J/K/mol
324.24 K	127.71 ± 0.56 J/K/mol
326.23 K	128.15 ± 0.56 J/K/mol
328.22 K	128.71 ± 0.56 J/K/mol
330 K	129.18 ± 0.57 J/K/mol
330.21 K	129.23 ± 0.57 J/K/mol
332.21 K	129.58 ± 0.57 J/K/mol
334.2 K	130.14 ± 0.57 J/K/mol
336.19 K	130.48 ± 0.57 J/K/mol
338.18 K	131.04 ± 0.57 J/K/mol
340 K	131.5 ± 0.58 J/K/mol
340.18 K	131.54 ± 0.58 J/K/mol
342.17 K	132 ± 0.58 J/K/mol
344.16 K	132.51 ± 0.58 J/K/mol
346.15 K	132.95 ± 0.58 J/K/mol
348.15 K	133.41 ± 0.58 J/K/mol
350 K	133.79 ± 0.58 J/K/mol
350.14 K	133.82 ± 0.59 J/K/mol
352.14 K	134.31 ± 0.59 J/K/mol
354.14 K	134.84 ± 0.59 J/K/mol
356.13 K	135.27 ± 0.59 J/K/mol
358.13 K	135.71 ± 0.59 J/K/mol
360 K	136.1 ± 0.59 J/K/mol
360.13 K	136.12 ± 0.59 J/K/mol
362.13 K	136.47 ± 0.6 J/K/mol
364.13 K	136.92 ± 0.6 J/K/mol
366.13 K	137.31 ± 0.6 J/K/mol
368.13 K	137.72 ± 0.6 J/K/mol
370 K	138.26 ± 0.6 J/K/mol
370.14 K	138.29 ± 0.6 J/K/mol
372.14 K	138.51 ± 0.6 J/K/mol
374.14 K	138.93 ± 0.61 J/K/mol
376.14 K	139.33 ± 0.61 J/K/mol
378.15 K	139.67 ± 0.61 J/K/mol
380 K	140.09 ± 0.61 J/K/mol
380.15 K	140.12 ± 0.61 J/K/mol
382.16 K	140.49 ± 0.61 J/K/mol
384.17 K	140.86 ± 0.61 J/K/mol
386.17 K	141.18 ± 0.61 J/K/mol
388.18 K	141.53 ± 0.62 J/K/mol
390 K	141.96 ± 0.62 J/K/mol
390.19 K	142 ± 0.62 J/K/mol
392.2 K	142.2 ± 0.62 J/K/mol
394.22 K	142.53 ± 0.62 J/K/mol
396.23 K	142.78 ± 0.62 J/K/mol
398.24 K	143.19 ± 0.62 J/K/mol
400.25 K	143.52 ± 0.62 J/K/mol
